Experimental data published in US11076595B2, “1-(n,n-disubstituted carbamoyl) 4-(substituted sulfonyl)triazolin-5-one derivative, 4-(n,n-disubstituted carbamoyl) 1-(substituted sulfonyl)triazolin-5-one derivative, and herbicide containing said derivative as active ingredient” (HOKKO CHEMICAL INDUSTRY CO., LTD., priority 2017, dated 2021).

How the values were obtained:
Type in all cases: in vivo
Echinochloa crus-galli [1] = experiment: Test Example 11: herbicidal effect test by soil treatment in paddy field; details: 120 g/10a active ingredient, 14 days after treatment
Summary of the method: (§1)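 Pre-emergence paddy test, 120 g a.i./10 are, emulsifiable concentrate diluted in water and added dropwise to ~3 cm flood water right after sowing (30 seeds/species, 0–1 cm depth, fertilized puddled soil). Greenhouse; 2 replicates; dry-weight suppression (%) vs untreated, day 14.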

Lindernia pyxidaria [2] = experiment: as above; details: 120 g/10a active ingredient, 14 days after treatment
Summary of the method: as §1

Scirpus juncoides [3] = experiment: as above; details: 120 g/10a active ingredient, 14 days after treatment
Summary of the method: as §1

Monochoria vaginalis [4] = experiment: as above; details: 120 g/10a active ingredient, 14 days after treatment
Summary of the method: as §1

Echinochloa crus-galli [5] = experiment: Test Example 14: herbicidal effect test by foliage treatment in upland field; details: 7 days after sowing, 120 g/10a, 14 days after treatment
Summary of the method: (§2)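 Dose: 120 g a.i. per 10 are, sprayed in 100 L water per 10 are onto pots seven days post-sowing in alluvial soil. After 14 days, weed dry weight relative to untreated plots gave suppression rate (%); duplicate plots per concentration.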

Amaranthus viridis [6] = experiment: as above; details: 7 days after sowing, 120 g/10a, 14 days after treatment
Summary of the method: as §2

Echinochloa crus-galli [7] = experiment: Test Example 12: herbicidal effect test by treatment during growing period in paddy field; details: 120 g/10a; treatment seven days after sowing in flooded paddy pot; assessed 14 days after treatment
Summary of the method: (§3)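 Seeds (30 per species) are sown shallowly into fertilized, puddled paddy soil kept under ~3 cm of water in a greenhouse. One week later, compound formulated as an emulsifiable concentrate is applied dropwise to the water at 120 g a.i./10 are. After 14 days, dry weights give percent suppression against untreated controls.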

Lindernia pyxidaria [8] = experiment: as above; details: 120 g/10a; treatment seven days after sowing in flooded paddy pot; assessed 14 days after treatment
Summary of the method: as §3

Scirpus juncoides [9] = experiment: as above; details: 120 g/10a; treatment seven days after sowing in flooded paddy pot; assessed 14 days after treatment
Summary of the method: as §3

Monochoria vaginalis [10] = experiment: as above; details: 120 g/10a; treatment seven days after sowing in flooded paddy pot; assessed 14 days after treatment
Summary of the method: as §3

crabgrass [11] = experiment: Test Example 14: herbicidal effect test by foliage treatment in upland field; details: 7 days after sowing, 120 g/10a, 14 days after treatment
Summary of the method: as §2

Chenopodium album [12] = experiment: as above; details: 7 days after sowing, 120 g/10a, 14 days after treatment
Summary of the method: as §2

Echinochloa crus-galli [13] = experiment: Test Example 13: herbicidal effect test by soil treatment in upland field; details: 120 g/10a, 14 days after treatment
Summary of the method: (§4)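 Pre-emergence soil spray, 1 d post-sowing; emulsifiable concentrate in water, 100 L/10 are, 120 g a.i./10 are. Pots 36 cm^2, alluvial soil, 20 seeds/species in top 1 cm. n=2; read 14 d; suppression % = (1 − treated/untreated mean dry weight) × 100.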

Amaranthus viridis [14] = experiment: as above; details: 120 g/10a, 14 days after treatment
Summary of the method: as §4

crabgrass [15] = experiment: as above; details: 120 g/10a, 14 days after treatment
Summary of the method: as §4

Chenopodium album [16] = experiment: as above; details: 120 g/10a, 14 days after treatment
Summary of the method: as §4

Row | Structure (SMILES) | Weed suppression rate (%) Echinochloa crus-galli (Echinochloa crus-galli [1]) [%] | Weed suppression rate (%) Lindemia pyxidaria (Lindernia pyxidaria [2]) [%] | Weed suppression rate (%) Scirpus juncoides (Scirpus juncoides [3]) [%] | Weed suppression rate (%) Monochoria vaginalis (Monochoria vaginalis [4]) [%] | herbicidal effect, Echinochloa crus-galli (Echinochloa crus-galli [5]) [%] | herbicidal effect, Amaranthus viridis (Amaranthus viridis [6]) [%] | Weed suppression rate (%) Echinochloa crus-galli (Echinochloa crus-galli [7]) [%] | Weed suppression rate (%) Lindemia pyxidaria (Lindernia pyxidaria [8]) [%] | Weed suppression rate (%) Scirpus juncoides (Scirpus juncoides [9]) [%] | Weed suppression rate (%) Monochoria vaginalis (Monochoria vaginalis [10]) [%] | herbicidal effect, Crabgrass (crabgrass [11]) [%] | herbicidal effect, Chenopodium album (Chenopodium album [12]) [%] | herbicidal effect, Echinochloa crus-galli (Echinochloa crus-galli [13]) [%] | herbicidal effect, Amaranthus viridis (Amaranthus viridis [14]) [%] | herbicidal effect, Crabgrass (crabgrass [15]) [%] | herbicidal effect, Chenopodium album (Chenopodium album [16]) [%]
1 | CC(C)N(C(=O)n1cnn(S(=O)(=O)C2CCC2)c1=O)c1ccc(F)cc1F [Compound 11-258] | 100 | 100 | 100 | 100 | 80 | 90 | 90 | 90 | 90 | 90 | 90 | 80 | 100 | 100 | 100 | 100
2 | CC(C)N(C(=O)n1cnn(S(=O)(=O)C2CCCC2)c1=O)c1ccc(F)cc1F [Compound 11-273] | 100 | 100 | 90 | 90 | 80 | 90 | 100 | 90 | 90 | 90 | 90 | 80 | 90 | 60 | 100 | 90
3 | CC(C)N(C(=O)n1cnn(S(=O)(=O)C2CCCCC2)c1=O)c1ccccc1 [Compound 11-283] | 100 | 90 | 90 | 70 | 80 | 90 | 90 | 90 | 90 | 90 | 90 | 80 | 80 | 90 | 90 | 80
4 | CC(C)N(C(=O)n1cnn(S(=O)(=O)C2CCCCC2)c1=O)c1ccc(F)cc1F [Compound 11-294] | 100 | 100 | 100 | 100 | 80 | 90 | 100 | 80 | 90 | 90 | 90 | 80 | 80 | 90 | 90 | 80
5 | CC(C)N(C(=O)n1cnn(S(=O)(=O)C2CCCCC2)c1=O)c1c(F)cccc1F [Compound 11-296] | 100 | 100 | 100 | 70 | 100 | 90 | 100 | 80 | 90 | 90 | 100 | 70 | 100 | 60 | 100 | 70
6 | CC(C)N(C(=O)n1cnn(S(=O)(=O)C2CCCCC2)c1=O)c1ccc(F)c(F)c1F [Compound 11-297] | 100 | 100 | 100 | 90 | 100 | 90 | 100 | 70 | 100 | 100 | 100 | 60 | 90 | 100 | 90 | 70
7 | CC(C)N(C(=O)n1cnn(S(=O)(=O)C2CCCCC2)c1=O)c1c(F)cc(F)cc1F [Compound 11-298] | 100 | 100 | 100 | 100 | 100 | 60 | 100 | 80 | 100 | 80 | 100 | 70 | 100 | 60 | 100 | 60
8 | CC(C)N(C(=O)n1cnn(S(=O)(=O)C2CCCCC2)c1=O)c1ccc(F)cc1Cl [Compound 11-301] | 90 | 80 | 90 | 80 | 80 | 90 | 90 | 80 | 90 | 80 | 90 | 80 | 80 | 90 | 90 | 80
9 | CC(C)N(C(=O)n1cnn(S(=O)(=O)c2ccccc2)c1=O)c1ccc(F)cc1F [Compound 11-367] | 100 | 100 | 90 | 90 | 90 | 40 | 100 | 90 | 90 | 90 | 90 | 40 | 100 | 40 | 100 | 40
